Reference: patent US8466145B2, “Dipeptidyl peptidase IV inhibitors” (Orchid Chemicals & Pharmaceuticals Limited, priority 2009, dated 2013)
Where a name gives a salt, the structure may show the parent alone.

tested on: not given; assay: not given; conditions: not given

Row | melting point | SMILES
1 | 150 to 155 °C | CC1(C)[C@@H](Cn2cncn2)CC[C@@]1(C)NCC(=O)N1CCC[C@H]1C#N (as salt: methanesulfonate) [Example 9, (S)-1-(2-((1R,3S)-3-((1H-1,2,4-Triazol-1-yl)methyl)-1,2,2-trimethylcyclopentylamino)acetyl)pyrrolidine-2-carbonitrilemethanesulfonate]
2 | 210 to 214 °C | CC1(C)[C@@H](Cn2cnnn2)CC[C@@]1(C)NCC(=O)N1C[C@@H](F)C[C@H]1C#N (as salt: methanesulfonate) [Example 31, (2S,4S)-1-(2-((1R,3S)-3-((1H-Tetrazol-1-yl)methyl)-1,2,2-trimethylcyclopentylamino)acetyl)-4-fluoropyrrolidine-2-carbonitrile methanesulfonate]

molecular target: T1, human recombinant Dipeptidyl peptidase IV enzyme (hrDPP IV) (Homo sapiens, UniProt P27487); assay: DPP IV assay, cleavage of H-Gly-Pro-AMC by human recombinant DPP-IV enzyme; assay type: biochemical; conditions: not given
T1 construct: purchased R&D systems
Procedure: DPP IV activity was determined by the cleavage rate of 7-amino 4-methylcoumarin (AMC) from the substrate H-Gly-Pro-AMC. In brief, the assay was conducted by adding 3 ng of human recombinant Dipeptidyl peptidase IV enzyme (hrDPP IV, available commercially from R&D systems) in 70 μL of the assay buffer (25 mM HEPES, 140 mM NaCl and 1% BSA, pH 7.8) to a 96 well black flat bottom microtitre plate. Test compounds were added as 10 μL additions to all wells except blank and total activity wells. After incubation of test substance with enzyme for 60 minutes at room temperature, 10 μL of 100 μM substrate H-Gly-Pro-AMC was added. After mixing, the plate was left for 20 minutes at room temperature. Then the reaction was terminated by addition of 10 μL of 25% glacial acetic acid. Fluorescence was measured using Spectra Max Gemini XS (Molecular Devices, USA) at an excitation filter of 360 nm and emission filter of 460 nm.
Test compounds dissolved in DMSO were diluted with assay buffer at different concentrations and tested in duplicates. Percentage inhibition was calculated with respect to total activity. IC50 value was calculated using Prism Software.

T1 sequence (P27487 whole entry): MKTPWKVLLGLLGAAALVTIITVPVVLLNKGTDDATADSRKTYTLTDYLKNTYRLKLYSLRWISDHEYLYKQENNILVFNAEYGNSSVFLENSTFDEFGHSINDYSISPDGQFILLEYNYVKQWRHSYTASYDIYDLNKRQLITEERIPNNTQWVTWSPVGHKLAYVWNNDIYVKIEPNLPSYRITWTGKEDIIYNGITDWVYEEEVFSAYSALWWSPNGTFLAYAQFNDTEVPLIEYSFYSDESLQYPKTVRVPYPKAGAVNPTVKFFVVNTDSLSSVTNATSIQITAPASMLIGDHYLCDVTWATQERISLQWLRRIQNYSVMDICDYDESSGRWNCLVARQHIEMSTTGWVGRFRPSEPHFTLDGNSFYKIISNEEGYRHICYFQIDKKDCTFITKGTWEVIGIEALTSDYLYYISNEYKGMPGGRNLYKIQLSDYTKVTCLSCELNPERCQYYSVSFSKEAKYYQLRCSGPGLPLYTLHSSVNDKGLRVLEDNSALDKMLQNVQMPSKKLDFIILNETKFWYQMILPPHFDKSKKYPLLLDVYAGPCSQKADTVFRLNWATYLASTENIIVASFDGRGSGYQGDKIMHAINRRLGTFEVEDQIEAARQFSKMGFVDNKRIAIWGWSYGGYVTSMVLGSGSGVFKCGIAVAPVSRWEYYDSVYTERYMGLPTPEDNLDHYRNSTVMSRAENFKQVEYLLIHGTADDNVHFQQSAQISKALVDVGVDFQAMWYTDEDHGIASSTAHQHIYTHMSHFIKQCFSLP

Row | SMILES | IC50
3 | CC1(C)[C@@H](Cn2ccnn2)CC[C@@]1(C)NCC(=O)N1C[C@@H](F)C[C@H]1C#N [Example 11, (2S,4S)-1-(2-((1R,3S)-3-((1H-1,2,3-Triazol-1-yl)methyl)-1,2,2-trimethylcyclopentylamino)acetyl)-4-fluoropyrrolidine-2-carbonitrile] | 232 nM
4 | CC1(C)[C@H](Cn2ccnn2)CC[C@]1(C)NCC(=O)N1C[C@@H](F)C[C@H]1C#N [Example 13, (2S,4S)-1-(2-((1S,3R)-3-((1H-1,2,3-Triazol-1-yl)methyl)-1,2,2-trimethylcyclopentylamino)acetyl)-4-fluoropyrrolidine-2-carbonitrilemethane sulfonate] | 27.8 nM
5 | CC1(C)[C@@H](CNS(=O)(=O)c2ccc(F)cc2)CC[C@@]1(C)NCC(=O)N1C[C@@H](F)C[C@H]1C#N [Example 19, N-(((1S,3R)-3-(2-((2S,4S)-2-Cyano-4-fluoropyrrolidin-1-yl)-2-oxoethylamino)-2,2,3-trimethylcyclopentyl)methyl)-4-fluorobenzenesulfonamide] | 304.8 ± 2.1 nM
6 | CC1(C)[C@@H](CNc2ccc(C#N)cn2)CC[C@@]1(C)NCC(=O)N1C[C@@H](F)C[C@H]1C#N [Example 24, 6-(((1S,3R)-3-(2-((2S,4S)-2-Cyano-4-fluoropyrrolidin-1-yl)-2-oxoethylamino)-2,2,3-trimethylcyclopentyl)methylamino)nicotinonitrile] | 134 nM
7 | CC1(C)[C@H](CNc2ccc(C#N)cn2)CC[C@]1(C)NCC(=O)N1C[C@@H](F)C[C@H]1C#N [Example 25, 6-(((1R,3S)-3-(2-((2S,4S)-2-Cyano-4-fluoropyrrolidin-1-yl)-2-oxoethylamino)-2,2,3-trimethylcyclopentyl)methylamino)nicotinonitrile] | 29.4 nM
8 | CC1(C)[C@@H](Cn2cnnn2)CC[C@@]1(C)NCC(=O)N1C[C@@H](F)C[C@H]1C#N [Example 31, (2S,4S)-1-(2-((1R,3S)-3-((1H-Tetrazol-1-yl)methyl)-1,2,2-trimethylcyclopentylamino)acetyl)-4-fluoropyrrolidine-2-carbonitrile methanesulfonate] | 264 nM
9 | CC1(C)[C@@H](CN2CCOCC2)CC[C@@]1(C)NCC(=O)N1C[C@@H](F)C[C@H]1C#N [Example 33, (2S,4S)-4-Fluoro-1-(2-((1R,3S)-1,2,2-trimethyl-3-(morpholinomethyl)cyclopentylamino)acetyl)pyrrolidine-2-carbonitrile] | 250 nM

Further lines, results first:

Row | IC50 | SMILES
10 | 123 nM | CC1(C)[C@H](Cn2cncn2)CC[C@]1(C)NCC(=O)N1CCC[C@H]1C#N [Example 6, (S)-1-(2-((1S,3R)-3-((1H-1,2,4-Triazol-1-yl)methyl)-1,2,2-trimethylcyclopentylamino)acetyl)pyrrolidine-2-carbonitrile]
11 | 99.8 nM | CC1(C)[C@H](Cn2cncn2)CC[C@]1(C)NCC(=O)N1CCC[C@H]1C#N [Example 7, (S)-1-(2-((1S,3R)-3-((1H-1,2,4-Triazol-1-yl)methyl)-1,2,2-trimethylcyclopentylamino)acetyl)pyrrolidine-2-carbonitrile methanesulfonate]
12 | 1170 ± 0.14 nM | CC1(C)[C@@H](Cn2cncn2)CC[C@@]1(C)NCC(=O)N1CCC[C@H]1C#N [Example 8, (S)-1-(2-((1R,3S)-3-((1H-1,2,4-Triazol-1-yl)methyl)-1,2,2-trimethyleyclopentylamino)acetyl)pyrrolidine-2-carbonitrile]
13 | 781 ± 91.6 nM | CC1(C)[C@@H](Cn2cncn2)CC[C@@]1(C)NCC(=O)N1CCC[C@H]1C#N [Example 9, (S)-1-(2-((1R,3S)-3-((1H-1,2,4-Triazol-1-yl)methyl)-1,2,2-trimethylcyclopentylamino)acetyl)pyrrolidine-2-carbonitrilemethanesulfonate]

same assay, conditions: 300 nM compound concentration

Row | SMILES | inhibition at 0.3 µM
14 | CC1(C)[C@@H](C(=O)N2CCCCC2)CC[C@@]1(C)NCC(=O)N1C[C@@H](F)C[C@H]1C#N [Example 14, (2S,4S)-4-Fluoro-1-(2-((1R,3S)-1,2,2-trimethyl-3-(piperidine-1-carbonyl)cyclopentylamino)acetyl)pyrrolidine-2-carbonitrile] | 73.2%
15 | CC1(C)[C@@H](CNS(C)(=O)=O)CC[C@@]1(C)NCC(=O)N1C[C@@H](F)C[C@H]1C#N [Example 17, N-(((1S,3R)-3-(2-((2S,4S)-2-Cyano-4-fluoropyrrolidin-1-yl)-2-oxoethylamino)-2,2,3-trimethylcyclopentyl)methyl)methanesulfonamide] | 46.6%
16 | CC1(C)[C@H](CN2CCCCC2)CC[C@]1(C)NCC(=O)N1C[C@@H](F)C[C@H]1C#N [Example 40, (2S,4S)-4-Fluoro-1-(2-((1S,3R)-1,2,2-trimethyl-3-(piperidin-1-ylmethyl)cyclopentylamino)acetyl)pyrrolidine-2-carbonitrile] | 84.7%
17 | CC1(C)[C@@H](CN2CCC(O)CC2)CC[C@@]1(C)NCC(=O)N1C[C@@H](F)C[C@H]1C#N [Example 41, (2S,4S)-4-Fluoro-1-(2-((1R,3S)-3-((4-hydroxypiperidin-1-yl)methyl)1,2,2-trimethylcyclopentylamino)acetyl)pyrrolidine-2-carbonitrile] | 26.1%
18 | CC1(C)[C@@H](CC#N)CC[C@@]1(C)NCC(=O)N1C[C@@H](F)C[C@H]1C#N [Example 53, (2S,4S)-1-(2-((1R,3R)-3-(Cyanomethyl)-1,2,2-trimethylcyclopentylamino)acetyl)-4-fluoropyrrolidine-2-carbonitrile] | 56.5%

The remaining lines, values ahead:

Row | inhibition at 0.3 µM | SMILES
19 | 23.3% | CN1C[C@]2(C)CC[C@](NCC(=O)N3CCC[C@H]3C#N)(C1)C2(C)C [Example 78, (S)-1-(2-((1R,5R)-3,5,8,8-Tetramethyl-3-azabicyclo[3.2.1]octan-1-ylamino)acetyl)pyrrolidine-2-carbonitrile]
20 | 2.28% | CC1(C)[C@@]2(C)CC[C@]1(NCC(=O)N1CCC[C@H]1C#N)COC2 [Example 80, (S)-1-(2-((1R,5R)-5,8,8-Trimethyl-3-oxabicyclo[3.2.1]octan-1-ylamino)acetyl)pyrrolidine-2-carbonitrile]
21 | 21.3% | CC1(C)[C@@]2(C)CC[C@]1(NCC(=O)N1C[C@@H](F)C[C@H]1C#N)COC2 [Example 81, (2S,4S)-4-Fluoro-1-(2-((1R,5R)-5,8,8-trimethyl-3-oxabicyclo[3.2.1]octan-1-ylamino)acetyl)pyrrolidine-2-carbonitrile]
22 | 22.4% | CC1(C)[C@]2(C)CC[C@@]1(NCC(=O)N1C[C@@H](F)C[C@H]1C#N)COC2 [Example 82, (2S,4S)-4-Fluoro-1-(2-((1S,5S)-5,8,8-trimethyl-3-oxabicyclo[3.2.1]octan-1-ylamino)acetyl)pyrrolidine-2-carbonitrile]
